# Measurements taken from patent US20220153746A1, “NITROGEN OXIDE-DONATING PDE-5 AND/OR PDE-6 INHIBITOR COMPOUNDS, AND USES THEREOF” (ILDONG PHARMACEUTICAL CO., LTD., priority 2020, published 2022).
# Where two headings read alike, the source gives them in different places.
# Experiment: PK Phase (Group 2): plasma concentrations and pharmacokinetics of Compound 18 and its metabolite Compound 4 after once daily ocular instillation of Compound 18 nanosuspension for 7 days
# Assay type: in vivo, New Zealand white rabbits
# Source text: This example illustrates the procedures and results for the levels of Compound 18 and its metabolite Compound 4 in plasma and ocular tissues of normotensive rabbits following ocular instillation of Compound 18 once daily for 7 consecutive days.
# Twenty five (25) male New Zealand white rabbits were divided into 5 groups of varying amounts of animals per group.
# The Test article, Compound 18 was formulated as a 2% nanosuspension in DI water containing 0.2% PS80 (polyoxyethylenesorbitan, monooleate (Tween 80)) and 0.4% HPMC (hydroxypropylmethylcellulose) at pH 6.77. Referred to herein as “Compound 18 nanosuspension.”
# The study consisted of three groups (Groups 1-3) of 19 male rabbits (NZW) that underwent once daily morning ocular installation (1 eyedrop) for 7 consecutive days (Day 0-6). Groups 4-5 each consisted of 3 male rabbits (NZW) that were not dosed.
# Blood samples (1 mL) were collected from the jugular vein at the intervals set out below for each group. The samples were then inverted several times following collection and held on wet ice until centrifuged. Samples were centrifuged within 60 minutes of collection under refrigeration (set at 5° C. for 10 minutes at 2000 g. […]
# Plasma and tissue samples from treated animals (Groups 1-3) were analyzed for Compound 18 and its metabolite Compound 4 concentrations by LC-MS/MS.
# Pharmacokinetic analysis was conducted using WinNonlin Version 6.2.1 (Pharsight, Mountain View, Calif.), operating as a validated software system. Noncompartmental analysis was conducted using the extravascular administration model for ocular instillation dosing.
# The peak plasma concentration, time to achieve peak plasma concentration, half-life, and area under the plasma concentration-time curve (Cmax, Tmax, T1/2, and AUC) were calculated from the PK phase individual animal plasma concentrations for each sampling time/dose group for Compound 18 and its metabolite Compound 4.
# BA Assay: Quantitation Range 0.05 to 100 ng/mL for Compound 18, 0.15 to 100 ng/mL for Compound 4.
# Plasma calibration standards (PLSTD-A) with Compound 18 concentrations ranging from 0.0500 to 100 ng/mL were prepared by spiking control rabbit plasma with appropriate calibration curve spiking solutions (SS-A). PLQC-A samples with concentrations of 0.150, 5.00, 50.0, and 80.0 ng/mL were prepared by spiking control rabbit plasma with appropriate SS-A-QC spiking solutions.
# Plasma calibration standards (PLSTD-B) with Compound 4 concentrations ranging from 0.150 to 100 ng/mL were prepared by spiking control rabbit plasma with appropriate calibration curve spiking solutions (SS-B). PLQC-B samples with concentrations of 0.450, 5.00, 50.0, and 80.0 ng/mL were prepared by spiking control rabbit plasma with appropriate SS-B-QC spiking solutions. PLQC-B-Dil samples at 800 ng/mL were prepared by spiking control rabbit plasma with the SS-B-QC-Dil spiking solution at 16,000 ng/mL, and then diluted 20× with control rabbit plasma prior to extraction.
# 1. Thaw plasma standards, plasma QC samples, ocular tissue QC samples, incurred plasma samples and ocular tissue samples (AH/VH) (if applicable) on wet ice. Control plasma can be thawed in tepid water. Vortex before taking aliquots.
# 2. Pipet 50 μL of water for Reagent Blank, 50 μL of control plasma for Double Blank and Blank, 50 μL of pre-spiked plasma for Standards and QC samples, 50 μL of incurred plasma samples (if applicable) into a 96 well plate.
# 5. Add 200 μL of working internal standard (WIS) solution to all remaining samples.
# 6. Seal the plate and vortex for approximately 5 minutes. Centrifuge the plate at 3500 rpm for 10 minutes at ˜4° C.
# 7. Transfer ˜200 μL of each sample supernatant into the appropriate wells of a 96 well plate. Submit for LC MS/MS analysis.
# A total of 25 rabbits were used for this study, including 19 treated rabbits and 6 control rabbits. […]
compound,measurement,setting,value
"CCCc1nn(C)c2c(=O)[nH]c(-c3cc(S(=O)(=O)N4CC(CCCO[N+](=O)[O-])C4)ccc3OCC)nc12 [Compound 18, 3-(1-((4-ethoxy-3-(1-methyl-7-oxo-3-propyl-6,7-dihydro-1H-pyrazolo[4,3-d]pyrimidin-5-yl)phenyl)sulfonyl)azetidin-3-yl)propyl nitrate]",Day 7 Compound 18 Plasma Concentration,"0.5 h, animal 207665",BQL (BQL = Below lower limit of quantitation (0.0500 ng/mL for Compound 18)
same,Day 1 Compound 18 Plasma Concentration,"1 h, animal 207664",BQL^a (BQL = Below lower limit of quantitation (0.0500 ng/mL for Compound 18)
same,Day 1 Compound 18 Plasma Concentration,"1 h, animal 207665",BQL (BQL = Below lower limit of quantitation (0.0500 ng/mL for Compound 18)
same,Day 7 Compound 18 Plasma Concentration,"1 h, animal 207665",BQL (BQL = Below lower limit of quantitation (0.0500 ng/mL for Compound 18)
same,Day 1 Compound 18 Plasma Concentration,"2 h, animal 207664",BQL (BQL = Below lower limit of quantitation (0.0500 ng/mL for Compound 18)
same,Day 1 Compound 18 Plasma Concentration,"2 h, animal 207665",BQL (BQL = Below lower limit of quantitation (0.0500 ng/mL for Compound 18)
same,Day 7 Compound 18 Plasma Concentration,"2 h, animal 207665",BQL (BQL = Below lower limit of quantitation (0.0500 ng/mL for Compound 18)
same,Day 1 Compound 18 Plasma Concentration,"2 h, animal 207666",BQL (BQL = Below lower limit of quantitation (0.0500 ng/mL for Compound 18)
same,Day 7 Compound 18 Plasma Concentration,"2 h, animal 207667",BQL (BQL = Below lower limit of quantitation (0.0500 ng/mL for Compound 18)
same,Day 1 Compound 18 Plasma Concentration,"4 h, animal 207664",BQL (BQL = Below lower limit of quantitation (0.0500 ng/mL for Compound 18)
same,Day 7 Compound 18 Plasma Concentration,"4 h, animal 207664",BQL (BQL = Below lower limit of quantitation (0.0500 ng/mL for Compound 18)
same,Day 1 Compound 18 Plasma Concentration,"4 h, animal 207665",BQL (BQL = Below lower limit of quantitation (0.0500 ng/mL for Compound 18)
same,Day 7 Compound 18 Plasma Concentration,"4 h, animal 207665",BQL (BQL = Below lower limit of quantitation (0.0500 ng/mL for Compound 18)
same,Day 1 Compound 18 Plasma Concentration,"4 h, animal 207667",BQL (BQL = Below lower limit of quantitation (0.0500 ng/mL for Compound 18)
same,Day 7 Compound 18 Plasma Concentration,"4 h, animal 207667",BQL (BQL = Below lower limit of quantitation (0.0500 ng/mL for Compound 18)
same,Day 1 Compound 18 Plasma Concentration,"8 h, animal 207664",BQL (BQL = Below lower limit of quantitation (0.0500 ng/mL for Compound 18)
same,Day 7 Compound 18 Plasma Concentration,"8 h, animal 207664",BQL (BQL = Below lower limit of quantitation (0.0500 ng/mL for Compound 18)
same,Day 1 Compound 18 Plasma Concentration,"8 h, animal 207665",BQL (BQL = Below lower limit of quantitation (0.0500 ng/mL for Compound 18)
same,Day 1 Compound 18 Plasma Concentration,"8 h, animal 207666",BQL (BQL = Below lower limit of quantitation (0.0500 ng/mL for Compound 18)
same,Day 1 Compound 18 Plasma Concentration,"8 h, animal 207667",BQL (BQL = Below lower limit of quantitation (0.0500 ng/mL for Compound 18)
same,Day 7 Compound 18 Plasma Concentration,"8 h, animal 207667",BQL (BQL = Below lower limit of quantitation (0.0500 ng/mL for Compound 18)
same,Day 1 Compound 18 Plasma Concentration,"24 h, animal 207664",BQL (BQL = Below lower limit of quantitation (0.0500 ng/mL for Compound 18)
same,Day 7 Compound 18 Plasma Concentration,"24 h, animal 207664",BQL (BQL = Below lower limit of quantitation (0.0500 ng/mL for Compound 18)
same,Day 1 Compound 18 Plasma Concentration,"24 h, animal 207665",BQL (BQL = Below lower limit of quantitation (0.0500 ng/mL for Compound 18)
same,Day 7 Compound 18 Plasma Concentration,"24 h, animal 207665",BQL (BQL = Below lower limit of quantitation (0.0500 ng/mL for Compound 18)
same,Day 1 Compound 18 Plasma Concentration,"24 h, animal 207667",BQL (BQL = Below lower limit of quantitation (0.0500 ng/mL for Compound 18)
same,In-life observations,"Groups 1-3, Compound 18 nanosuspension 1 drop/eye/day for 7 days, except animal #207664 discolored skin and rapid respiratory rate on Day 7",normal following dosing
same,concentration at 0.5 h,"male, New Zealand white, rabbit, plasma, other: ocular instillation (eye drop), 0.821 mg/kg/day, 0.5 h, Mean of 4 animals, BQL set to 0, read-out: Day 7 Compound 18 Plasma Concentration",0.0811 ng/mL
same,concentration at 0.5 h,"male, New Zealand white, rabbit, plasma, other: ocular instillation (eye drop), 0.821 mg/kg/day, 0.5 h, animal 207664, read-out: Day 7 Compound 18 Plasma Concentration",0.0978 ng/mL
same,concentration at 0.5 h,"male, New Zealand white, rabbit, plasma, other: ocular instillation (eye drop), 0.821 mg/kg/day, 0.5 h, animal 207666, read-out: Day 7 Compound 18 Plasma Concentration",0.163 ng/mL
same,concentration at 0.5 h,"male, New Zealand white, rabbit, plasma, other: ocular instillation (eye drop), 0.821 mg/kg/day, 0.5 h, animal 207667, read-out: Day 7 Compound 18 Plasma Concentration",0.0634 ng/mL
same,concentration at 1 h,"male, New Zealand white, rabbit, plasma, other: ocular instillation (eye drop), 0.821 mg/kg/day, 1 h, Mean of 4 animals, BQL set to 0, read-out: Day 7 Compound 18 Plasma Concentration",0.15 ng/mL
same,concentration at 1 h,"male, New Zealand white, rabbit, plasma, other: ocular instillation (eye drop), 0.821 mg/kg/day, 1 h, animal 207664, read-out: Day 7 Compound 18 Plasma Concentration",0.306 ng/mL
same,concentration at 1 h,"male, New Zealand white, rabbit, plasma, other: ocular instillation (eye drop), 0.821 mg/kg/day, 1 h, animal 207666, read-out: Day 7 Compound 18 Plasma Concentration",0.131 ng/mL
same,concentration at 1 h,"male, New Zealand white, rabbit, plasma, other: ocular instillation (eye drop), 0.821 mg/kg/day, 1 h, animal 207667, read-out: Day 7 Compound 18 Plasma Concentration",0.161 ng/mL
same,concentration at 2 h,"male, New Zealand white, rabbit, plasma, other: ocular instillation (eye drop), 0.821 mg/kg/day, 2 h, Mean of 4 animals, BQL set to 0, read-out: Day 1 Compound 18 Plasma Concentration",0.0208 ng/mL
same,concentration at 2 h,"male, New Zealand white, rabbit, plasma, other: ocular instillation (eye drop), 0.821 mg/kg/day, 2 h, Mean of 4 animals, BQL set to 0, read-out: Day 7 Compound 18 Plasma Concentration",0.0657 ng/mL
same,concentration at 2 h,"male, New Zealand white, rabbit, plasma, other: ocular instillation (eye drop), 0.821 mg/kg/day, 2 h, animal 207664, read-out: Day 7 Compound 18 Plasma Concentration",0.188 ng/mL
same,concentration at 2 h,"male, New Zealand white, rabbit, plasma, other: ocular instillation (eye drop), 0.821 mg/kg/day, 2 h, animal 207666, read-out: Day 7 Compound 18 Plasma Concentration",0.0747 ng/mL
same,concentration at 2 h,"male, New Zealand white, rabbit, plasma, other: ocular instillation (eye drop), 0.821 mg/kg/day, 2 h, animal 207667, read-out: Day 1 Compound 18 Plasma Concentration",0.083 ng/mL
same,concentration at 4 h,"male, New Zealand white, rabbit, plasma, other: ocular instillation (eye drop), 0.821 mg/kg/day, 4 h, Mean of 4 animals, BQL set to 0, read-out: Day 1 Compound 18 Plasma Concentration",0.0164 ng/mL
same,concentration at 4 h,"male, New Zealand white, rabbit, plasma, other: ocular instillation (eye drop), 0.821 mg/kg/day, 4 h, Mean of 4 animals, BQL set to 0, read-out: Day 7 Compound 18 Plasma Concentration",0.017 ng/mL
same,concentration at 4 h,"male, New Zealand white, rabbit, plasma, other: ocular instillation (eye drop), 0.821 mg/kg/day, 4 h, animal 207666, read-out: Day 1 Compound 18 Plasma Concentration",0.0655 ng/mL
same,concentration at 4 h,"male, New Zealand white, rabbit, plasma, other: ocular instillation (eye drop), 0.821 mg/kg/day, 4 h, animal 207666, read-out: Day 7 Compound 18 Plasma Concentration",0.0678 ng/mL
same,concentration at 8 h,"male, New Zealand white, rabbit, plasma, other: ocular instillation (eye drop), 0.821 mg/kg/day, 8 h, Mean of 4 animals, BQL set to 0, read-out: Day 1 Compound 18 Plasma Concentration",0 ng/mL
